Drawing on PMC10976219, “Purification and Biochemical Characterization of Polyphenol Oxidase Extracted from Wheat Bran (Wan grano)” (Molecules, 2024), this text covers Km for seven compounds.

For this experiment, the system named is T1, wheat PPO (purified wheat bran polyphenol oxidase).
T1 construct: gene PPO-A1; native, purified from wheat bran (ammonium sulfate, DEAE-Sepharose, Superdex G-75); approx. 21 kDa on SDS-PAGE, dual bands 21 and 17 kDa
The experiment can be described thus: spectrophotometric oxidation assay at […] nm, Lineweaver-Burk. As to conditions: 50 mM phosphate pH 6.5, 35 °C, 2-10 mM substrate. The class given is biochemical, Triticum aestivum.
With `Oc1ccccc1O` [catechol], the Km (in general, the substrate concentration at which the rate is half of its maximum) turned out to be 6.36 ± 0.71 mM. For `O=C(O[C@@H]1Cc2c(O)cc(O)cc2O[C@@H]1c1ccc(O)c(O)c1)c1cc(O)c(O)c(O)c1` [epicatechin gallate] the value was 7.9 ± 0.64 mM; for `Oc1cc(O)c2c(c1)O[C@H](c1ccc(O)c(O)c1)[C@H](O)C2` [epicatechin], 8.01 ± 0.46 mM; for `O=C(O[C@@H]1Cc2c(O)cc(O)cc2O[C@@H]1c1cc(O)c(O)c(O)c1)c1cc(O)c(O)c(O)c1` [epigallocatechin gallate], 7.7 ± 0.14 mM.

Regarding `Oc1cc(O)c2c(c1)O[C@H](c1cc(O)c(O)c(O)c1)[C@H](O)C2` [epigallocatechin], the Km worked out at 9.05 ± 0.18 mM. As for `O=C(O)c1cc(O)c(O)c(O)c1` [gallic acid], the figure is 7.05 ± 0.47 mM; as for `Oc1cccc(O)c1O` [pyrogallic acid], 7.37 ± 0.71 mM.
